The values that follow come from article PMC5117131 (ACS chemical biology, 2016).

The target of experiment [1] is phosphorylated Rb^NP–E2F^TMR (Homo sapiens, UniProt P06400, DEL245-267/DEL582-642). Put plainly: FP EC50 measurement of Rb activation. It counts as biochemical. Conditions: 20 nM phosphorylated Rb^NP, 10 nM E2F^TMR, Figure 3b.
The next experiment concerns Rb. Conditions: LxCxE-like peptides; cited from earlier work.
Experiment [2] addresses E2F2 transactivation domain peptide (E2FTMR) 409-428 (UniProt Q14209). Put plainly: fluorescence polarization, single concentration, 384-well. The following applies: reference: unphosphorylated RbNP; sites T356,T373. A general note: Polarisation of emitted light reports the rotation of a fluorescent probe.
A further experiment addresses T1, TMR-E2F2^TD peptide (human).
T1 chain: {TMR}-QDDYLWGLEAGEGISDLFD
Put plainly: fluorescence polarisation.

The test system of experiment [3] is Rb Q736A/K740A docking interface mutant. The experiment in a line: E2F^TD binding to Rb with mutated docking interface. The format is biochemical. The following applies: Supporting Information Figure 3.

Entries after “also recorded” stand apart in the source; their conditions may differ. Where no end group is shown, it is not given here. TMR = tetramethylrhodamine dye

Turning to MEHQLLCCEVETIRRAY [cyclin D], in experiment [1], the “effect in the Rb activation assay (in words)” value is reported as “do not show activity; also recorded: no effect”. Moreover, in the experiment on Rb, the “affinity for Rb (in words)” value is given as “weak affinity”.

“Rb (retinoblastoma protein; RbNP construct) 55-787 (from UniProt P06400) Cdk2–CycA phosphorylated RbNP”: the “other: FP ratio” value in experiment [2] is “weaker; reference ~165”.

With TDLEASLLSFEKLDRAphosSPDLWPE [LIN52], the “effect in the Rb activation assay (in words)” value in experiment [1] was “do not show activity; also recorded: no effect”. For the same molecule, in the experiment on Rb, the “affinity for Rb (in words)” value was “weak affinity”.

B1: phosphorylated Rb^NP (residues 55-787, Δ245-267, Δ582-642, phosphorylated by Cdk2-CycA) (domain or fragment, UniProt P06400 55-787, looked up)
chain: PDFTALCQKLKIPDHVRERAWLTWEKVSSVDGVLGGYIQKKKELWGICIFIAAVDLDEMSFTFTELQKNIEISVHKFFNLLKEIDTSTKVDNAMSRLLKKYDVLFALFSKLERTCELIYLTQPSSSISTEINSALVLKVSWITFLLAKGEVLQMEDDLVISFQLMLCVLDYFIKLSPPMLLKEPYKTAVIENDTRIIEVLCKEHECNIDEVKNVYFKNFIPFMNSLGLVTSNGLPEVENLSKRYEEIYLKNKDLDARLFLDHDKTLQTDSIDSFETQRTPRKSNLDEEVNVIPPHTPVRTVMNTIQQLMMILNSASDQPSENLISYFNNCTVNPKESILKRVKDIGYIFKEKFAKAVGQGCVEIGSQRYKLGVRLYYRVMESMLKSEEERLSIQNFSKLLNDNIFHMSLLACALEVVMATYSRSTSQNLDSGTDLSFPWILNVLNLKAFDFYKVIESFIKAEGNLTREMIKHLERCEHRIMESLAWLSDSPLFDLIKQSKDREGKSTSLSLFYKKVYRLAYLRLNTLCERLLSEHPELEHIIWTLFQHTLQNEYELMRDRHLDQIMMCSMYGICKVKNIDLKFKIIVTAYKDLPHAVQETFKRVLIKEEEYDSIIVFYNSVFMQRLKTNILQYASTRPPTLSPIPHIPR
modifications: quantitative phosphorylation on two sites (the construct contains the two sites T356 and T373)
As for B1, in the experiment with TMR-E2F2^TD peptide, the FP ratio is around 60 FP ratio.

B2: unphosphorylated Rb^NP (Rb N-terminal domain and pocket domain, residues 55-787, Δ245-267, Δ582-642) (domain or fragment, UniProt P06400 55-787, looked up)
chain: B1 chain
For B2, the FP ratio with TMR-E2F2^TD peptide was around 165 FP ratio.

B3: E7 protein: full length HPV E7 protein (protein)
chain: MHGDTPTLHEYMLDLQPETTDLYCYEQLNDSSEEEDEIDGPAGQAEPDRAHYNIVTFCCKCDSTLRLCVQSTHVDIRTLEDLLMGTLGIVCPICSQKP
Take B3: the “effect on E2F^TD binding to Rb with mutated docking interface” value in experiment [3] is recorded as “do not affect E2F^TD binding to Rb”.
